From PMC12527173, “Cytotoxic, anti-inflammatory, antioxidant, and anti-glyoxalase-I evaluation of chelating substances: In silico and in vitro study” (PLOS One, 2025)
Like-named read-outs stand apart in the source and are kept apart here.

Legend:
[1] = tested on: CACO2 colorectal cancer cell line; experiment: SRB cytotoxicity assay, CACO2; assay type: cell-based; conditions: Homo sapiens, Caco-2, 72 h incubation, n = 12, read-out: Cytotoxicity (as of %Control) IC50 value CACO2
Description: (§1) The cancer cell lines were cultured in DMEM supplemented with 10% FBS (Bio Whittaker, Verviers, Belgium), HEPES Buffer (10 mM), gentamicin (50 µg/mL), L-glutamine (100 μg/mL), streptomycin ([…]), penicillin (100 µg/mL), and 4-(2-hydroxyethyl)-1-piperazineethanesulfonic acid (HEPES) Buffer (Sigma, St. Luis, MO, USA). The Sulforhodamine B used was obtained from Santa Cruz Biotechnology, Inc. in Texas, USA. […] Periodontal ligament fibroblasts (PDL) were utilized to assess specific cytotoxicity. Cancer cell lines that have survived offer several benefits. They provide a consistent and uninterrupted source of cells, so bypassing any ethical concerns related to the use of human tissue. Additionally, they are cost-effective. The cytotoxicity levels were assessed using the Sulforhodamine B (SRB) colorimetric assay, provided by Santa Cruz Biotechnology, Inc. in Texas, USA. The Spectro Scan 80D UV-VIS spectrophotometer, manufactured by Sedico Ltd. in Nicosia, Cyprus, was employed for this cytotoxicity screening. The cells were co-incubated with substances or a reference agent at various doses ranging from 5 to 200 μg/mL. […] The reduction in cell viability was analyzed by plotting Dose-response curves and expressing the data as a percentage of the control optical density. The IC50 values were obtained using regression analysis.

[2] = tested on: HCT116 colorectal cancer cell line; experiment: SRB cytotoxicity assay, HCT116; assay type: cell-based; conditions: Homo sapiens, HCT-116, 72 h incubation, n = 12, read-out: Cytotoxicity (as of %Control) IC50 value HCT116
Description: as §1

[3] = SRB cytotoxicity assay, normal PDL fibroblasts; assay type: cell-based; conditions: normal periodontal ligament (PDL) fibroblasts, 72 h incubation, 0.1–200 µM range, read-out: Cytotoxicity (as of %Control) IC50 value PDL fibroblasts
Description: as §1

[4] = tested on: Human PC3 prostate cancer cell line; experiment: SRB cytotoxicity assay, PC3; assay type: cell-based; conditions: 72 h incubation, n = 12, read-out: Cytotoxicity (as of %Control) IC50 value PC3 prostate malignancy
Description: as §1

[5] = tested on: PANC1 pancreatic cell line; experiment: SRB cytotoxicity assay, PANC1; assay type: cell-based; conditions: Homo sapiens, PANC-1, 72 h incubation, n = 12, read-out: Cytotoxicity (as of %Control) IC50 value PANC1
Description: as §1

[6] = tested on: HeLa uterine cervix adenocarcinoma cell line; experiment: SRB cytotoxicity assay, HeLa; assay type: cell-based; conditions: Homo sapiens, 72 h incubation, n = 12, read-out: Cytotoxicity (as of %Control) IC50 value Hela cervix malignancy
Description: as §1

[7] = DPPH free radical scavenger assay; conditions: DPPH radical scavenging; n = 12
Source text: This approach relies on the reduction of the radicals, which causes a change in colour from oxidized purple to reduced yellow. Primarily, Diphenyl-2-picryl-hydrazyl (DPPH) is reduced in a solution of methanol (MeOH) when a chemical that donates hydrogen is present. This reduction is due to the creation of the non-radical form DPPH-H. The alteration in colour can be precisely assessed by employing a spectrophotometer within the wavelength range of 515–520 nm. Unlike other assays for radical scavenging, the DPPH radical is stable and yields consistent spectroscopic data. A 0.2 mM DPPH solution was diluted with MeOH and then combined with treatment compounds and ascorbic acid in a 1:1 concentration ratio using a 96-well plate. […] The solution was then incubated for one hour, isolated from light. Subsequently, the alteration in absorbance at a wavelength of 517 nm was quantified using a microplate reader manufactured by Bio-Tek Instrument in the United States. Ascorbic acid served as a strong and traditional benchmark for comparing the effectiveness of radical scavenging agents. The DPPH radical scavenging activity inhibition was calculated using the following equation, where A denotes photometric absorbance: The formula to calculate the percentage difference between a control and a sample is: (A control – A sample)/ A control x 100% [71, 72].

[8] = tested on: A549 lung cancer cell line; experiment: SRB cytotoxicity assay, A549; assay type: cell-based; conditions: Homo sapiens, 72 h incubation, n = 12, read-out: Cytotoxicity (as of %Control) IC50 value A549 lung malignancy
Description: as §1

[9] = tested on: SW620 colorectal cancer cell line; experiment: SRB cytotoxicity assay, SW620; assay type: cell-based; conditions: Homo sapiens, SW-620, 72 h incubation, n = 12, read-out: Cytotoxicity (as of %Control) IC50 value SW620
Description: as §1

[10] = target: T1, human recombinant Glo-I enzyme (rhGlo-I) (Homo sapiens, UniProt Q04760); experiment: Glyoxalase-I (Glo-I) enzyme inhibition assay; assay type: biochemical; conditions: for Maximum (descriptive statistics of enzyme inhibition): highest mean inhibition over the tested concentrations; for Maximum (descriptive statistics of enzyme inhibition) / Minimum (descriptive statistics of enzyme inhibition): in % (unit assumed); for IC50: human recombinant Glo-I, triplicates, read-out: IC50 µM ± SD; for Minimum (descriptive statistics of enzyme inhibition): lowest mean inhibition over the tested concentrations
T1 construct: N-terminal Met and 6-His tag (N); purchased R&D Systems; host or cells: E. coli
T1 sequence (Q04760 2-184 limits assumed): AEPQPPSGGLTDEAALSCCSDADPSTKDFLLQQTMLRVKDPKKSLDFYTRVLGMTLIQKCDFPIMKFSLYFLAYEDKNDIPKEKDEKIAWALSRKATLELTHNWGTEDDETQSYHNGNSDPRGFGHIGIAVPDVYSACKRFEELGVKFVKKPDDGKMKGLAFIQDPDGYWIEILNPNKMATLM
Description: Solvents and chemicals were procured from Sigma-Aldrich Co. and Acros (ThermoFisher Scientific, New Jersey, USA). […] The enzyme was obtained from R&D Systems® Corporation in the USA. Synthetic compounds were tested for their inhibitory effects on the enzyme using a 10 mM DMSO stock concentration in triplicates. The manufacturer’s protocol from R & D Systems, Inc. in Minneapolis, MN, USA was followed for the in vitro experiments. The reconstituted Glo-I enzyme (0.5 mg/mL) was thawed after being stored at −70°C in sterile deionized water. […] The monitoring was done at a wavelength of 240 nm for 200 seconds at 37°C. The substrate mixture was freshly concocted with a concentration of 100 mM glutathione and 100 mM methylglyoxal (MG) in assay buffer containing 0.5 M sodium phosphate dibasic/monobasic. It was then left undisturbed at room temperature for 15 minutes […]. The selected compounds for investigation are subsequently produced in testing concentration ranges using a 0.1 M solution of sodium phosphate dibasic/monobasic with a pH range of 7–7.2. The blank contained an assay buffer with MG substrate. The test compounds were combined with human recombinant Glo-I (50 µM) in a 96-well plate to determine their kinetic behavior.

[11] = read-out: Trial one (%inhibtion)
[12] = read-out: Trial three (%inhibtion)
[13] = read-out: Trial two (%inhibtion)

C[C@]12CC[C@@H]3c4ccc(O)c(O)c4CC[C@H]3[C@@H]1CC[C@@H]2O [4-hydroxy-estradiol]
IC50 [1]: 107 ± 4.77 µM
IC50 [2]: 124 ± 7.8 µM
IC50 at 72 h [3]: > 200 µM
IC50 [4]: 82.2 ± 8.56 µM
IC50 [5]: 66.9 ± 2.69 µM
IC50 [6]: 29.8 ± 4.74 µM
IC50 [7]: 506 ± 102 µM
IC50 [8]: 15.2 ± 1.34 µM
IC50 [9]: 142 ± 16.5 µM
inhibition at 0.09765 µM [10, 11]: 18%
inhibition at 0.09765 µM [10, 12]: 20.6%
inhibition at 0.09765 µM [10, 13]: 21.7%
inhibition at 0.1953 µM [10, 11]: 57.6%
inhibition at 0.1953 µM [10, 12]: 59.2%
inhibition at 0.1953 µM [10, 13]: 55.5%
inhibition at 0.3906 µM [10, 11]: 69.7%
inhibition at 0.3906 µM [10, 12]: 66%
inhibition at 0.3906 µM [10, 13]: 67.1%
inhibition at 0.7812 µM [10, 11]: 80.8%
inhibition at 0.7812 µM [10, 12]: 81.3%
inhibition at 0.7812 µM [10, 13]: 82.9%
inhibition at 1.562 µM [10, 11]: 99.8%
inhibition at 1.562 µM [10, 12]: 94%
inhibition at 1.562 µM [10, 13]: 91.4%
inhibition at 3.125 µM [10, 11]: 93%
inhibition at 3.125 µM [10, 12]: 95.6%
inhibition at 3.125 µM [10, 13]: 96.1%
inhibition at 6.25 µM [10, 11]: 95.6%
inhibition at 6.25 µM [10, 12]: 96.1%
inhibition at 6.25 µM [10, 13]: 97.7%
inhibition at 12.5 µM [10, 11]: 99.8%
inhibition at 12.5 µM [10, 12]: 99.3%
inhibition at 12.5 µM [10, 13]: 98.7%
inhibition at 25 µM [10, 11]: 102%
inhibition at 25 µM [10, 12]: 104%
inhibition at 25 µM [10, 13]: 102%
inhibition at 50 µM [10, 11]: 102%
inhibition at 50 µM [10, 12]: 101%
inhibition at 50 µM [10, 13]: 101%
Maximum (descriptive statistics of enzyme inhibition) [10]: 102.5
IC50 [10]: 0.22 µM
Minimum (descriptive statistics of enzyme inhibition) [10]: 20.07

O=c1cc(O)cc(/C=C/c2ccc(O)c(O)c2)o1 [Hispidin]
IC50 [1]: 74.3 ± 1.13 µM
IC50 [2]: 198 ± 12.2 µM
IC50 at 72 h [3]: > 200 µM
IC50 [4]: 139 ± 13.6 µM
IC50 [5]: 130 ± 2.08 µM
IC50 [6]: 122 ± 1.34 µM
IC50 [7]: 26.3 ± 0.65 µM
IC50 [8]: 26 ± 5.22 µM
IC50 [9]: 34.3 ± 6.52 µM
inhibition at 3.125 µM [10, 11]: 10.9%
inhibition at 3.125 µM [10, 12]: 20.2%
inhibition at 3.125 µM [10, 13]: 4.72%
inhibition at 6.25 µM [10, 11]: 19.1%
inhibition at 6.25 µM [10, 12]: 24%
inhibition at 6.25 µM [10, 13]: 10%
inhibition at 12.5 µM [10, 11]: 29.5%
inhibition at 12.5 µM [10, 12]: 34.3%
inhibition at 12.5 µM [10, 13]: 19.2%
inhibition at 25 µM [10, 11]: 47.9%
inhibition at 25 µM [10, 12]: 43.5%
inhibition at 25 µM [10, 13]: 32.4%
inhibition at 50 µM [10, 11]: 53.5%
inhibition at 50 µM [10, 12]: 54.5%
inhibition at 50 µM [10, 13]: 44.3%
Maximum (descriptive statistics of enzyme inhibition) [10]: 50.76
IC50 [10]: 36.4 ± 16.1 µM
Minimum (descriptive statistics of enzyme inhibition) [10]: 11.95
